{"source": "patent US20120190752A1", "about": "“EXO-S-MECAMYLAMINE METHOD, USE, AND COMPOUND FOR TREATMENT” (Targacept Inc., priority 2009, published 2012)", "test_system": "subjects with major depressive disorder (MDD) who were inadequate responders to citalopram", "test": "SGI-Cog (Subject Global Impression-Cognition) with Attention, Memory, Speed subscales, Phase 2b add-on trial", "type": "in vivo, human", "design": "SGI-Cognition Adj. Mean / SGI-Attention Adj. Mean / SGI-Memory Adj. Mean / SGI-Speed Adj. Mean / SGI-Cog TOTAL Adjusted Mean / SGI-Cog MEMORY Adjusted Mean / SGI-Cog ATTENTION Adjusted Mean / SGI-Cog SPEED OF THINKING Adjusted Mean: scale not given here", "details": "for SGI-Cog ATTENTION Adjusted Mean / SGI-Cog ATTENTION Mean Difference between TC-5214 and Placebo / SGI-Cog MEMORY Adjusted Mean / SGI-Cog MEMORY Mean Difference between TC-5214 and Placebo / SGI-Cog SPEED OF THINKING Adjusted Mean / SGI-Cog SPEED OF THINKING Mean Difference between TC-5214 and Placebo / SGI-Cog TOTAL Adjusted Mean / SGI-Cog TOTAL Mean Difference between TC-5214 and Placebo: Double Blind Week 16; for SGI-Attention Adj. Mean / SGI-Memory Adj. Mean / SGI-Speed Adj. Mean / SGI-Cognition Adj. Mean / SGI-Attention Difference vs placebo / SGI-Cognition Difference vs placebo / SGI-Memory Difference vs placebo / SGI-Speed Difference vs placebo: ITT; for SGI-Attention Adj. Mean / SGI-Memory Adj. Mean / SGI-Speed Adj. Mean / SGI-Cognition Adj. Mean: assessed at endpoint (Week 16), patient rated change from baseline; for SGI-Cognition Adj. Mean: sum of 3 items; for SGI-Attention Difference vs placebo / SGI-Cognition Difference vs placebo / SGI-Memory Difference vs placebo / SGI-Speed Difference vs placebo: endpoint (Week 16)", "description": "In more detail, a multi-center double-blind, randomized, placebo-controlled, parallel group, flexible dose titration study of TC-5214 as adjunctive therapy in subjects with major depressive disorder (MDD) who were inadequate responders to citalopram was conducted in centers in the US and India. The study consisted of a screening period, baseline/washout period, open-label phase, double-blind phase, and a follow-up visit. Subject participation in the study could continue for up to 16 weeks of treatment. Following a washout period of up to 28 days for other antidepressants, subjects with MDD and a MADRS total score >/=28 and a Clinical Global Impression-Severity (CGI-S) score >/=4 were enrolled on Day 1 into an open-label citalopram-only phase of the study. This phase lasted 8 weeks, with citalopram (CIT) dose increased from a once-daily dose of 20 mg (Day 1 through Week 4) to 40 mg (Week 4 through Week 8). A total of 579 subjects entered the open-label citalopram phase. At Week 8, subjects who tolerated 40 mg CIT, but whose MADRS score was reduced <50% from baseline and no lower than 17, and CGI-S≧4, were considered inadequate responders. These subjects (n=270) were randomized in a double-blind fashion to receive either placebo or TC-5214-23 as add-on therapy to continued CIT. The double-blind phase of the study also lasted 8 weeks (Week 8 to Week 16). Study drug, TC-5214-23 or placebo, was started at 2 mg daily (1 mg twice per day [BID] dosing), added on to continuing CIT (40 mg PO qd). After 2 weeks of treatment, the dose of TC-5214 could be increased to 4 mg (2 mg BID) or continued unchanged, with up-titration based upon good tolerability and inadequate therapeutic response. After a further 2 weeks, the dose of TC-5214 could be increased again to 8 mg (4 mg BID) if judged appropriate by the investigator, based upon good tolerability and inadequate therapeutic response. At any time during the double-blind phase of the study, placebo or TC-5214-23 could be reduced to the previous dose level following the emergence of unacceptable adverse events (AEs). […] At this follow-up, any signs or symptoms of relapse were evaluated. If a subject was prematurely discontinued from the study between Week 8 and Week 16 for any reason, the investigator was to make every effort to perform all evaluations as per protocol, assuming the subject had reached the end of the double-blind add-on treatment phase. These evaluations were to be made as soon as possible and within 2 weeks of discontinuation. […] There was no meaningful difference in results as a function of age, gender, site, or smoking status. [table] With regard to efficacy endpoints, the following tables present efficacy used in the ITT (Intent-to-Treat) and PP (Per Protocol) populations unless otherwise specific. The primary inference was based upon Week 16 visit using the ITT population. Change from baseline was obtained by subtracting the baseline values from the individual on-treatment values. Change from Week 16 was obtained by subtracting the Week 16 values from the individual follow-up visit (Week 18/19) values. If either the baseline or Week 16 or on-treatment or follow-up value was missing, the change from baseline or Week 16 value was also set to missing. To account for missing data, the last observation carry forward (LOCF) method was used for the ITT and PP populations. Thus, the last available on-therapy observation for a subject, including the observation at premature discontinuation, was used to estimate subsequent missing data points. For efficacy, baseline data were collected at Week 8 in the double-blind augmentation phase electronic case report form pages. With regard to SGI-Cog, the endpoint was the Week 16 results for the SGI-Cog. The Week 16 SGI-Cog composite score and each scale were analyzed at Week 16 using ANOVA. […]", "data": [{"smiles": "CNC1(C)C2CCC(C2)C1(C)C", "note": "(stereo in doubt) [TC-5214, (S)—N,2,3,3-tetramethylnorbornan-2-amine]", "values": [{"measurement": "SGI-Cog ATTENTION Adjusted Mean", "setting": "ITT Population", "value": 2.13}, {"measurement": "SGI-Cog ATTENTION Mean Difference between TC-5214 and Placebo", "setting": "ITT Population", "value": 0.72}, {"measurement": "SGI-Cog MEMORY Adjusted Mean", "setting": "ITT Population", "value": 2.23}, {"measurement": "SGI-Cog MEMORY Mean Difference between TC-5214 and Placebo", "setting": "ITT Population", "value": 0.67}, {"measurement": "SGI-Cog SPEED OF THINKING Adjusted Mean", "setting": "ITT Population", "value": 2.16}, {"measurement": "SGI-Cog SPEED OF THINKING Mean Difference between TC-5214 and Placebo", "setting": "ITT Population", "value": 0.76}, {"measurement": "SGI-Cog TOTAL Adjusted Mean", "setting": "ITT Population", "value": 6.52}, {"measurement": "SGI-Cog TOTAL Mean Difference between TC-5214 and Placebo", "setting": "ITT Population", "value": 2.15}, {"measurement": "SGI-Attention Adj. Mean", "value": "2.13 (0.09)"}, {"measurement": "SGI-Memory Adj. Mean", "value": "2.23 (0.09)"}, {"measurement": "SGI-Speed Adj. Mean", "value": "2.16 (0.09)"}, {"measurement": "SGI-Attention Adj. Mean", "setting": "listed as TC-5214 + CIT", "value": 2.13}, {"measurement": "SGI-Memory Adj. Mean", "setting": "listed as TC-5214 + CIT", "value": 2.23}, {"measurement": "SGI-Speed Adj. Mean", "setting": "listed as TC-5214 + CIT", "value": 2.16}, {"measurement": "SGI-Cognition Adj. Mean", "value": "6.52 (0.27)"}, {"measurement": "SGI-Cognition Adj. Mean", "setting": "listed as TC-5214 + CIT", "value": 6.52}, {"measurement": "SGI-Attention Difference vs placebo", "value": "−0.72 (−0.96, −0.47)"}, {"measurement": "SGI-Cognition Difference vs placebo", "value": "−2.15 (−2.89, −1.41)"}, {"measurement": "SGI-Memory Difference vs placebo", "value": "−0.67 (−0.93, −0.42)"}, {"measurement": "SGI-Speed Difference vs placebo", "value": "−0.76 (−1.02, −0.50)"}, {"measurement": "SGI-Attention Difference vs placebo", "setting": "listed as TC-5214 + CIT", "value": "−0.72"}, {"measurement": "SGI-Cognition Difference vs placebo", "setting": "listed as TC-5214 + CIT", "value": "−2.15"}, {"measurement": "SGI-Memory Difference vs placebo", "setting": "listed as TC-5214 + CIT", "value": "−0.67"}, {"measurement": "SGI-Speed Difference vs placebo", "setting": "listed as TC-5214 + CIT", "value": "−0.76"}, {"measurement": "SGI-Cog ATTENTION Adjusted Mean", "setting": "PP Population", "value": 2.03}, {"measurement": "SGI-Cog ATTENTION Mean Difference between TC-5214 and Placebo", "setting": "PP Population", "value": 0.76}, {"measurement": "SGI-Cog MEMORY Adjusted Mean", "setting": "PP Population", "value": 2.15}, {"measurement": "SGI-Cog MEMORY Mean Difference between TC-5214 and Placebo", "setting": "PP Population", "value": 0.68}, {"measurement": "SGI-Cog SPEED OF THINKING Adjusted Mean", "setting": "PP Population", "value": 2.05}, {"measurement": "SGI-Cog SPEED OF THINKING Mean Difference between TC-5214 and Placebo", "setting": "PP Population", "value": 0.81}, {"measurement": "SGI-Cog TOTAL Adjusted Mean", "setting": "PP Population", "value": 6.23}, {"measurement": "SGI-Cog TOTAL Mean Difference between TC-5214 and Placebo", "setting": "PP Population", "value": 2.25}, {"measurement": "Total SGI-Cog scores compared with placebo", "setting": "Week 16, ITT and PP populations, result in words", "value": "statistically significant lower"}]}]}
